Assays:
TAK1/TAB1 = TAK1/TAB1 (Homo sapiens, UniProt O43318); assay: Inhibition of truncated TAK1-TAB1(unknown origin) using MKK7 as substrate by ALPHAScreen assay in presence of ATP; assay type: protein-complex assay
[1] = biological target: T1, Mitogen-activated protein kinase kinase kinase 7 (Homo sapiens, UniProt O43318); assay: Inhibition of TAK1 in human HCT116 cells assessed as inhibition of TNF-alpha-stimulated JNK phosphorylation; assay type: cell-based, HCT-116
T1 sequence (O43318 whole entry): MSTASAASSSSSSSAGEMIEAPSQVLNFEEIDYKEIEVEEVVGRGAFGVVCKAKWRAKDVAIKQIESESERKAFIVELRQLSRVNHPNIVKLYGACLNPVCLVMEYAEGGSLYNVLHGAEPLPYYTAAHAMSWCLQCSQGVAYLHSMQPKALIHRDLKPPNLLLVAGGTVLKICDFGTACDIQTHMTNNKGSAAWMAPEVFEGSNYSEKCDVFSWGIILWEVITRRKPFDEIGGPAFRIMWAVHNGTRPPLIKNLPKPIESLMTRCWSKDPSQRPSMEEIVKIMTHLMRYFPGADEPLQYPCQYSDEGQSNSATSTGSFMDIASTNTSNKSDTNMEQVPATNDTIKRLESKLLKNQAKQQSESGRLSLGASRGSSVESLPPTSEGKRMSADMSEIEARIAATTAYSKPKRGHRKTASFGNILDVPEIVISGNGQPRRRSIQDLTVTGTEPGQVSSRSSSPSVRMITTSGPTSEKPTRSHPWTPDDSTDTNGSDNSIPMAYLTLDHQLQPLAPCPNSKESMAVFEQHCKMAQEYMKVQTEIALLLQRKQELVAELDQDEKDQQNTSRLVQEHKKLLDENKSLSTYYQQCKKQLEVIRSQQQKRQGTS

[2] = AUC (0 to infinity) in mouse at 2 mg/kg, iv; assay type: ADME, organism-based; design: time infinity, dose 2 mg/kg, route intravenous; conditions: plasma
[3] = Clearance in mouse at 2 mg/kg, iv; assay type: ADME, organism-based; design: dose 2 mg/kg, route intravenous; conditions: in vivo
[4] = Half life in mouse at 2 mg/kg, iv; assay type: ADME, organism-based; design: dose 2 mg/kg, route intravenous; conditions: in vivo
[5] = Metabolic stability in human liver microsomes assessed as extraction ratio; assay type: ADME, Microsome; conditions: read-out: ERH
[6] = AUC (0 to infinity) in mouse at 20 mg/kg, po; assay type: ADME, organism-based; design: time infinity, dose 20 mg/kg, route oral; conditions: plasma
[7] = Oral bioavailability in mouse at 20 mg/kg; assay type: ADME, organism-based; conditions: in vivo
[8] = Metabolic stability in mouse liver microsomes assessed as extraction ratio; assay type: ADME, Microsome; conditions: read-out: ERH
[9] = Volume of distribution at steady state in mouse at 2 mg/kg, iv; assay type: ADME, organism-based; design: dose 2 mg/kg, route intravenous; conditions: in vivo, read-out: Vdss
[10] = Cmax in mouse at 20 mg/kg, po; assay type: ADME, organism-based; design: dose 20 mg/kg, route oral; conditions: in vivo
[11] = Permeability of the compound by PAMPA; assay type: ADME; conditions: read-out: permeability

Chain of TAK1/TAB1 (Q15750 whole entry, one chain of several, the tested form may be a part): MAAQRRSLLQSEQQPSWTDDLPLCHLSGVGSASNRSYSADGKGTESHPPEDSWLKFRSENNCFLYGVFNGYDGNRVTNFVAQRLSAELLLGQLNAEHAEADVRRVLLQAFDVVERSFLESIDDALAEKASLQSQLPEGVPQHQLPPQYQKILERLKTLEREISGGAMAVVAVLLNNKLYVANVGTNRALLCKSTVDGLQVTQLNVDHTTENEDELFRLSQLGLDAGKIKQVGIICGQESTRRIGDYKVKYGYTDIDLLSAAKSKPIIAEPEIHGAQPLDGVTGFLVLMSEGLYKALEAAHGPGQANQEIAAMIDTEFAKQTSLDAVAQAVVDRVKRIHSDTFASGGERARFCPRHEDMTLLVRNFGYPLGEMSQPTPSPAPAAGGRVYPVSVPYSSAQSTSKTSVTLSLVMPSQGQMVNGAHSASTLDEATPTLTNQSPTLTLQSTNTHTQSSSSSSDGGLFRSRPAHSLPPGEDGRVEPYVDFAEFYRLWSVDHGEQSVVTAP

| IC50 (TAK1/TAB1) [nM] | IC50 [1] [nM] | SMILES | also measured |
| --- | --- | --- | --- |
| 2400 | 690 | CC(=O)N1CCC(n2cc(-c3cnc(N)c4oc(-c5cccc(N(C)C)c5)cc34)cn2)CC1 | – |
| 30 | 110 | CC(=O)N1CCC(n2cc(-c3cnc(N)c4oc(-c5csc6cnccc56)cc34)cn2)CC1 | hepatic extraction ratio [5]: 0.68; hepatic extraction ratio [8]: 0.72 |
| 18 | 340 | CC(=O)N1CCC(n2cc(-c3cnc(N)c4oc(-c5cn(C)c6cnccc56)cc34)cn2)CC1 | hepatic extraction ratio [5]: 0.64; hepatic extraction ratio [8]: 0.91 |
| 250 | 370 | CC(=O)N1CCC(n2cc(-c3cnc(N)c4oc(-c5cccc(C#N)c5)cc34)cn2)CC1 | – |
| 2800 | 1000 | CC(=O)c1cccc(-c2cc3c(-c4cnn(C5CCN(C(C)=O)CC5)c4)cnc(N)c3o2)c1 | – |
| 530 | 3100 | CC(=O)N1CCC(n2cc(-c3cnc(N)c4oc(-c5cccc(C(N)=O)c5)cc34)cn2)CC1 | – |
| 790 | 4000 | CC(=O)N1CCC(n2cc(-c3cnc(N)c4oc(-c5cccc(CN)c5)cc34)cn2)CC1 | – |
| 850 | 470 | CC(=O)N1CCC(n2cc(-c3cnc(N)c4oc(-c5cccc(CO)c5)cc34)cn2)CC1 | – |
| 1800 | 1000 | CC(=O)N1CCC(n2cc(-c3cnc(N)c4oc(-c5ccc(N)cc5)cc34)cn2)CC1 | – |
| 270 | 500 | CC(=O)N1CCC(n2cc(-c3cnc(N)c4oc(-c5ccc(O)cc5)cc34)cn2)CC1 | – |
| 880 | – | CC(=O)N1CCC(n2cc(-c3cnc(N)c4oc(-c5cnsc5)cc34)cn2)CC1 | – |
| 4300 | 1200 | CSc1cccc(-c2cc3c(-c4cnn(C5CCN(C(C)=O)CC5)c4)cnc(N)c3o2)c1 | – |
| 89 | 200 | CC(=O)N1CCC(n2cc(-c3cnc(N)c4oc(-c5cccc([N+](=O)[O-])c5)cc34)cn2)CC1 | – |
| 770 | 510 | CC(=O)N1CCC(n2cc(-c3cnc(N)c4oc(-c5cccc(N)c5)cc34)cn2)CC1 | – |
| 61 | 610 | CC(=O)N1CCC(n2cc(-c3cnc(N)c4oc(-c5cccc(O)c5)cc34)cn2)CC1 | – |
| 1800 | 1200 | COc1cccc(-c2cc3c(-c4cnn(C5CCN(C(C)=O)CC5)c4)cnc(N)c3o2)c1 | – |
| 1100 | 520 | CC(=O)N1CCC(n2cc(-c3cnc(N)c4oc(-c5ccccc5)cc34)cn2)CC1 | – |
| 710 | – | CC(=O)N1CCC(n2cc(-c3cnc(N)c4oc(-c5cccnc5)cc34)cn2)CC1 | – |
| 480 | – | CC(=O)N1CCC(n2cc(-c3cnc(N)c4oc(-c5ccsc5)cc34)cn2)CC1 | – |
| 130 | 9100 | CC(=O)N1CCC(n2cc(-c3cnc(N)c4oc(-c5cn[nH]c5)cc34)cn2)CC1 | – |
| 1600 | – | CC(=O)N1CCC(n2cc(-c3cnc(N)c4oc(-c5cnn(C)c5)cc34)cn2)CC1 | – |
| 1200 | – | CC(=O)N1CCC(n2cc(-c3cnc(N)c4oc(-c5cnco5)cc34)cn2)CC1 | – |

The next lines start with the compound.

| SMILES | IC50 (TAK1/TAB1) [nM] | IC50 [1] [nM] | also measured |
| --- | --- | --- | --- |
| CC(=O)N1CCC(n2cc(-c3cnc(N)c4oc(-c5ccc(OC(F)(F)F)cc5)cc34)cn2)CC1 | 3500 | 8000 | – |
| CC(=O)N1CCC(n2cc(-c3cnc(N)c4oc(-c5ccc(C#N)cc5)cc34)cn2)CC1 | 2500 | 2800 | – |
| CC(=O)N1CCC(n2cc(-c3cnc(N)c4oc(-c5ccc(C(=O)N(C)C)cc5)cc34)cn2)CC1 | > 30000 | – | – |
| CC(=O)N1CCC(n2cc(-c3cnc(N)c4oc(-c5ccc(CO)cc5)cc34)cn2)CC1 | 2800 | 4400 | – |
| CC(=O)N1CCC(n2cc(-c3cnc(N)c4oc(-c5ccc(CC#N)cc5)cc34)cn2)CC1 | 1500 | 1900 | – |
| CC(=O)N1CCC(n2cc(-c3cnc(N)c4oc(-c5cccc6cnsc56)cc34)cn2)CC1 | 23 | 44 | AUC(0-inf) [2]: 261 ng·h/mL; clearance [3]: 128 mL/min/kg; half-life [4]: 30 min; hepatic extraction ratio [5]: 0.73; AUC(0-inf) [6]: 285 ng·h/mL; bioavailability [7]: 11%; hepatic extraction ratio [8]: 0.84; Vd [9]: 2.5 L/kg; Cmax [10]: 1600 nM |
| CC(=O)N1CCC(n2cc(-c3cnc(N)c4oc(-c5cccc6ncsc56)cc34)cn2)CC1 | 13 | 10 | hepatic extraction ratio [5]: 0.62; hepatic extraction ratio [8]: 0.68 |
| CC(=O)N1CCC(n2cc(-c3cnc(N)c4oc(-c5cccc6nnsc56)cc34)cn2)CC1 | 4 | 12 | hepatic extraction ratio [5]: 0.68; hepatic extraction ratio [8]: 0.7 |
| CC(=O)N1CCC(n2cc(-c3cnc(N)c4oc(-c5cccc6ccccc56)cc34)cn2)CC1 | 1000 | 1200 | hepatic extraction ratio [5]: 0.66; hepatic extraction ratio [8]: 0.77 |
| CC(=O)N1CCC(n2cc(-c3cnc(N)c4oc(-c5csc6ccccc56)cc34)cn2)CC1 | 340 | 440 | hepatic extraction ratio [5]: 0.68; hepatic extraction ratio [8]: 0.85 |
| CC(=O)N1CCC(n2cc(-c3cnc(N)c4oc(-c5cnc6cnccn56)cc34)cn2)CC1 | 1400 | – | hepatic extraction ratio [5]: 0; hepatic extraction ratio [8]: 0.52 |
| Nc1ncc(-c2cnn(C3CCNCC3)c2)c2cc(-c3ccccc3)oc12 | 2700 | – | Papp [11]: < 1 ×10⁻⁶ cm/s |
| Nc1ncc(-c2cnn(C3CCNCC3)c2)c2cc(-c3cccc4ccsc34)oc12 | 1200 | – | Papp [11]: < 1 ×10⁻⁶ cm/s |
| CC(=O)N1CCC(n2cc(-c3cnc(N)c4oc(-c5cccc(C(F)(F)F)c5)cc34)cn2)CC1 | 2800 | 1600 | – |
| CSc1ccc(-c2cc3c(-c4cnn(C5CCN(C(C)=O)CC5)c4)cnc(N)c3o2)cc1 | 17500 | 5200 | – |
| CC(=O)N1CCC(n2cc(-c3cnc(N)c4oc(-c5ccc(S(C)(=O)=O)cc5)cc34)cn2)CC1 | 25700 | > 20000 | – |
| CC(=O)N1CCC(n2cc(-c3cnc(N)c4oc(-c5ccc(NS(C)(=O)=O)cc5)cc34)cn2)CC1 | 4900 | – | – |
| CSc1ccccc1-c1cc2c(-c3cnn(C4CCN(C(C)=O)CC4)c3)cnc(N)c2o1 | 430 | 500 | – |
| CC(=O)Nc1ccccc1-c1cc2c(-c3cnn(C4CCN(C(C)=O)CC4)c3)cnc(N)c2o1 | > 30000 | – | – |

| SMILES | IC50 (TAK1/TAB1) [nM] | IC50 [1] [nM] | also measured |
| --- | --- | --- | --- |
| CC(=O)N1CCC(n2cc(-c3cnc(N)c4oc(-c5ccccc5C#N)cc34)cn2)CC1 | 560 | 1700 | – |
| CC(=O)N1CCC(n2cc(-c3cnc(N)c4oc(-c5ccccc5C(F)(F)F)cc34)cn2)CC1 | > 30000 | – | – |
| CC(=O)c1ccccc1-c1cc2c(-c3cnn(C4CCN(C(C)=O)CC4)c3)cnc(N)c2o1 | 5400 | 3100 | – |
| CC(=O)N1CCC(n2cc(-c3cnc(N)c4oc(-c5ccccc5C(N)=O)cc34)cn2)CC1 | 6000 | 4500 | – |
| CC(=O)N1CCC(n2cc(-c3cnc(N)c4oc(-c5ccccc5CO)cc34)cn2)CC1 | 750 | 1500 | – |
| COCc1ccccc1-c1cc2c(-c3cnn(C4CCN(C(C)=O)CC4)c3)cnc(N)c2o1 | 1400 | 1800 | – |
| CC(=O)N1CCC(n2cc(-c3cnc(N)c4oc(-c5ccccc5CC#N)cc34)cn2)CC1 | 250 | 530 | – |
| CC(=O)N1CCC(n2cc(-c3cnc(N)c4oc(-c5cccc(S(C)(=O)=O)c5)cc34)cn2)CC1 | 4900 | 1100 | – |
| CC(=O)N1CCC(n2cc(-c3cnc(N)c4oc(-c5cccc(S(N)(=O)=O)c5)cc34)cn2)CC1 | 1800 | – | – |
| CC(=O)N1CCC(n2cc(-c3cnc(N)c4oc(-c5cccc(S(=O)(=O)N(C)C)c5)cc34)cn2)CC1 | 1400 | 1100 | – |
| CC(=O)Nc1cccc(-c2cc3c(-c4cnn(C5CCN(C(C)=O)CC5)c4)cnc(N)c3o2)c1 | 3200 | 9000 | – |
| COCCOc1cccc(-c2cc3c(-c4cnn(C5CCN(C(C)=O)CC5)c4)cnc(N)c3o2)c1 | 3200 | 2700 | – |
| CC(=O)N1CCC(n2cc(-c3cnc(N)c4oc(-c5cccc(OC(F)(F)F)c5)cc34)cn2)CC1 | 3500 | 1800 | – |
| CC(=O)N1CCC(n2cc(-c3cnc(N)c4oc(C5=CCNCC5)cc34)cn2)CC1 | 800 | – | – |
| CC(=O)N1CCC(n2cc(-c3cnc(N)c4oc(C5=CCCCC5)cc34)cn2)CC1 | 460 | – | – |
| CC(=O)N1CCC(n2cc(-c3cnc(N)c4oc(C5CCCCC5)cc34)cn2)CC1 | 650 | – | – |
| CC(=O)N1CCC(n2cc(-c3cnc(N)c4oc(C5=CCCC5)cc34)cn2)CC1 | 1200 | – | – |
| CC(=O)N1CCC(n2cc(-c3cnc(N)c4oc(C5CCCC5)cc34)cn2)CC1 | 2100 | – | – |
